Like-named read-outs stand apart in the source and are kept apart here.
Tests used:
[1] = system: AB1 (mouse malignant mesothelioma cell line); design: method as in doi:10.1039/D4NJ02047B; conditions: MTT assay, 72 h exposure; ref [33]; cited from earlier work
[2] = system: JU77 (human mesothelioma cell line); design: method as in doi:10.1039/D4NJ02047B; conditions: ref [33], cited from earlier work
[3] = system: MRC-5 (human embryonic lung fibroblast cell line); design: method as in doi:10.1039/D4NJ02047B; conditions: MTT assay, 72 h exposure; ref [33]; cited from earlier work
[4] = system: AB1 (mouse malignant mesothelioma cell line); test: MTT cytotoxicity assay, AB1 cells; type: cell-based; conditions: 72 h exposure
Procedure: (§1) AB1 (mouse malignant mesothelioma cell line) and JU77 (human mesothelioma cell line) were obtained from Cell Bank Australia; MRC-5 (human embryonic lung fibroblast cell line) was obtained from ATCC. […] Cells were grown in tissue culture flasks (75 cm^2 and 25 cm^2, SPL Life Sciences, Pocheon, South Korea). […] The cytotoxicity of compounds was determined using the MTT colorimetric test. Cells were harvested from culture flasks by trypsinization and seeded into Cellstar 96-well microculture plates at a seeding density of 6000 cells per well (6 × 10^4 cells per mL). After the cells were allowed to resume exponential growth for 24 h, they were exposed to drugs at different concentrations in media for 72 h. The tested compounds were diluted in the complete medium at the desired concentrations added to each well (100 μL) and serially diluted to other wells. After 72 h of exposure, the medium was replaced with MTT (5 mg mL^−1, 100 μL per well) and incubated for an additional 50 min. Subsequently, the medium was aspirated, and the purple formazan crystals formed in viable cells were dissolved in DMSO (100 μL per well). […] The evaluation was based on means from at least three independent experiments, each comprising three replicates per concentration level.

[5] = system: JU77 (human mesothelioma cell line); test: cells; type: cell-based
Procedure: as §1

[6] = system: MRC-5 (human embryonic lung fibroblast cell line); test: MTT cytotoxicity assay, MRC-5 cells; type: cell-based; conditions: MRC5, 72 h exposure
Procedure: as §1

[7] = NO release assay (Griess assay, phosphate buffer with L-cysteine)
[8] = system: AB1 and JU77 mesothelioma cell lines; test: cells; type: cell-based, mouse and human; conditions: MPM; range over AB1 and JU77, 72 h MTT; read-out: IC50 values in both cell lines
Procedure: as §1

SMILES	IC50 [1]	SFJU77 (selectivity factor) ([2]; IC50(MRC-5)/IC50(JU77))	IC50 ([2]; MTT assay, 72 h exposure)	IC50 [3]	IC50 [4]	IC50 ([5]; Homo sapiens, MTT assay, 72 h exposure)	SFJU77 (selectivity factor) ([5]; IC50(MRC-5)/IC50(JU77))	IC50 [6]	NO Released (%) 1 h ([7]; % NO2− (μmol/μmol) relative to initial concentration (100 μM), L-cysteine, phosphate buffer pH 7.4, 37 °C, 1 h)	NO Released (%) 24 h ([7]; % NO2− (μmol/μmol) relative to initial concentration (100 μM), L-cysteine, phosphate buffer pH 7.4, 24 h)	NO Released (%) 48 h ([7]; % NO2− (μmol/μmol) relative to initial concentration (100 μM), L-cysteine, phosphate buffer pH 7.4, 48 h)	Fold Change 24 h/1 h ([7]; ratio of NO released at 24 h to 1 h)	Fold Change 48 h/1 h ([7]; ratio of NO released at 48 h to 1 h)	Fold Change 48 h/24 h ([7]; ratio of NO released at 48 h to 24 h)	IC50 [8]
N.N.[Cl][Pt][Cl] [Cisplatin, cisplatin]	5.8 ± 1 µM	0.7	4.2 ± 0.5 µM	3.1 ± 1.2 µM											
N#Cc1c(-c2ncon2)no[n+]1[O-] [Compound 2l, 3-Cyano-4-(1,2,4-oxadiazolyl)furoxan]					7 ± 1.3 µM	5.4 ± 1.3 µM	0.9	4.6 ± 1 µM	42 ± 5%	68 ± 8%	72 ± 8%	1.6	1.7	1.1	5.4 to 7 µM

Reference: PMC11859074, “Exploring the Anticancer Potential of NO-Donor Oxadiazole Assemblies Against Malignant Pleural Mesothelioma” (Pharmaceutics, 2025)
